Earlier results in doi:10.1101/2024.08.20.608791v1 (bioRxiv, 2024).

conditions: oral bioavailability, not marked as animal data; source not stated per compound

Row | Compound | observed F
1 | CC1(C)CC[C@]2(NC(=O)C(C)(F)F)CC[C@]3(C)[C@H](C(=O)C=C4[C@@]5(C)C=C(C#N)C(=O)C(C)(C)[C@@H]5CC[C@]43C)[C@@H]2C1 [omaveloxolone] | 8%
2 | cholecystokinin octapeptide | 0.2%
3 | desmopressin | 0.08-0.16%
4 | semaglutide | 0.8%

same assay, conditions: species not stated; quoted as comparison for micafungin

Row | F | Compound
5 | 2-7% | anidulafungin

conditions: oral bioavailability in animals, species not stated

Row | observed F in animals | Compound
6 | 11-33% | CC(C)c1nc(CN(C)C(=O)N[C@@H](CCN2CCOCC2)C(=O)N[C@H](CC[C@H](Cc2ccccc2)NC(=O)OCc2cncs2)Cc2ccccc2)cs1 [cobicistat]
7 | 26-39% | C=C[C@@H]1C[C@]1(NC(=O)[C@@H]1C[C@@H](Oc2cc(-c3csc(NC(=O)C(C)C)n3)nc3c(Br)c(OC)ccc23)CN1C(=O)[C@@H](NC(=O)OC1CCCC1)C(C)(C)C)C(=O)O [faldaprevir]

conditions: assay not specified

Row | in vitro permeability (in words) | Compound
8 | moderate in vitro permeability | NNC(=O)NN1C(=O)c2cc(S(=O)(=O)O)cc3c(N)c(S(=O)(=O)O)cc(c23)C1=O [lucifer yellow CH]
9 | limited permeability | C=C1C[C@@]23CC[C@H]4[C@@](C)(CCC[C@@]4(C)C(=O)O[C@@H]4O[C@H](CO)[C@@H](O)[C@H](O)[C@H]4O)[C@@H]2CC[C@]1(O[C@@H]1O[C@H](CO)[C@@H](O)[C@H](O)[C@H]1O[C@@H]1O[C@H](CO)[C@@H](O)[C@H](O)[C@H]1O)C3 [stevioside]
10 | low in vitro permeability | pasireotide

same assay, conditions: not able to quantify in an in vitro permeability assay (≤LOQ)

Row | Compound | in vitro permeability, not able to quantify
11 | N#C[C@H](O[C@@H]1O[C@H](CO[C@@H]2O[C@H](CO)[C@@H](O)[C@H](O)[C@H]2O)[C@@H](O)[C@H](O)[C@H]1O)c1ccccc1 [Amygdalin] | ≤ LOQ
12 | CO/N=C(\C(=O)N[C@@H]1C(=O)N2C(C(=O)O)=C(CSc3nc(C)c(CC(=O)O)s3)CS[C@H]12)c1csc(N)n1 [Cefodizime] | ≤ LOQ
13 | CC(C)(C)OC(=O)N[C@H]1CCCCC/C=C\[C@@H]2C[C@@]2(C(=O)NS(=O)(=O)C2CC2)NC(=O)[C@@H]2C[C@@H](OC(=O)N3Cc4cccc(F)c4C3)CN2C1=O [danoprevir] | ≤ LOQ
14 | CC(=O)O[C@H]1C(=O)[C@@]2(C)[C@H]([C@H](OC(=O)c3ccccc3)[C@]3(O)C[C@H](OC(=O)[C@H](O)[C@@H](NC(=O)c4ccccc4)c4ccccc4)C(C)=C1C3(C)C)[C@]1(OC(C)=O)CO[C@@H]1C[C@@H]2O [paclitaxel] | ≤ LOQ
15 | Cc1ccc(C(=O)Nc2ccc(S(=O)(=O)O)c3cc(S(=O)(=O)O)cc(S(=O)(=O)O)c23)cc1NC(=O)c1cccc(NC(=O)Nc2cccc(C(=O)Nc3cc(C(=O)Nc4ccc(S(=O)(=O)O)c5cc(S(=O)(=O)O)cc(S(=O)(=O)O)c45)ccc3C)c2)c1 [suramin] | ≤ LOQ

Now from value to compound:

Row | in vitro permeability, not able to quantify | Compound
16 | ≤ LOQ | Nc1nc(=O)c2c([nH]1)NCC(CNc1ccc(C(=O)N[C@@H](CCC(=O)O)C(=O)O)cc1)N2C=O (mixture of isomers) [Folinic acid]
17 | ≤ LOQ | CO/N=C(\C(=O)N[C@@H]1C(=O)N2C(C(=O)O)=C(CSc3nc(=O)c(=O)[nH]n3C)CS[C@H]12)c1csc(N)n1 [Ceftriaxone]
18 | ≤ LOQ | COC(=O)N[C@H](C(=O)N1CCC[C@H]1C(=O)Nc1ccc([C@@H]2CC[C@@H](c3ccc(NC(=O)[C@@H]4CCCN4C(=O)[C@@H](NC(=O)OC)C(C)C)cc3)N2c2ccc(C(C)(C)C)cc2)cc1)C(C)C [Ombitasvir]
19 | ≤ LOQ | CC[C@]1(O)C[C@H]2CN(CCc3c([nH]c4ccccc34)[C@@](C(=O)OC)(c3cc4c(cc3OC)N(C=O)[C@H]3[C@@](O)(C(=O)OC)[C@H](OC(C)=O)[C@]5(CC)C=CCN6CC[C@]43[C@@H]65)C2)C1 [vincristine]
20 | ≤ LOQ | Vancomycin
21 | ≤ LOQ | dalbavancin
22 | ≤ LOQ | octreotide
23 | ≤ LOQ | terlipressin

conditions: <LOQ

Row | Compound | solubility in water (in words)
24 | CC[C@H]1OC(=O)[C@H](C)[C@@H](O[C@H]2C[C@@](C)(OC)[C@@H](O)[C@H](C)O2)[C@H](C)[C@@H](O[C@@H]2O[C@H](C)C[C@H](N(C)C)[C@H]2O)[C@](C)(O)C[C@@H](C)CN(C)[C@H](C)[C@@H](O)[C@]1(C)O [Azithromycin] | practically insoluble in water
25 | COC(=O)N[C@H](C(=O)N1CCC[C@H]1c1nc(-c2ccc3c(c2)O[C@@H](c2ccccc2)n2c-3cc3cc(-c4c[nH]c([C@@H]5CCCN5C(=O)[C@@H](NC(=O)OC)C(C)C)n4)ccc32)c[nH]1)C(C)C [elbasvir] | practically insoluble in water
26 | CO[C@H]1/C=C/O[C@@]2(C)Oc3c(C)c(O)c4c(O)c(c5c(nc6cc(C)ccn65)c4c3C2=O)NC(=O)/C(C)=C\C=C\[C@H](C)[C@H](O)[C@@H](C)[C@@H](O)[C@@H](C)[C@H](OC(C)=O)[C@@H]1C [rifaximin] | practically insoluble in water
27 | COC[C@H]1C[C@@H](c2ncc(-c3ccc4c(c3)COc3cc5c(ccc6nc([C@@H]7CC[C@H](C)N7C(=O)[C@@H](NC(=O)OC)C(C)C)[nH]c65)cc3-4)[nH]2)N(C(=O)[C@H](NC(=O)OC)c2ccccc2)C1 [velpatasvir] | practically insoluble in water
28 | anidulafungin | practically insoluble in water
29 | bivalirudin | practically insoluble in water
30 | quinupristin | practically insoluble in water

Continued, values first:

Row | solubility in water (in words) | Compound
31 | practically insoluble in water | CC1(C)CCC(CN2CCN(c3ccc(C(=O)NS(=O)(=O)c4ccc(NCC5CCOCC5)c([N+](=O)[O-])c4)c(Oc4cnc5[nH]ccc5c4)c3)CC2)=C(c2ccc(Cl)cc2)C1 [Venetoclax]
32 | practically insoluble in water | CO[C@H]1C[C@@H]2CC[C@@H](C)[C@@](O)(O2)C(=O)C(=O)N2CCCC[C@H]2C(=O)O[C@H]([C@H](C)C[C@@H]2CC[C@@H](OCCO)[C@H](OC)C2)CC(=O)[C@H](C)/C=C(\C)[C@@H](O)[C@@H](OC)C(=O)[C@H](C)C[C@H](C)/C=C/C=C/C=C/1C [everolimus]
33 | practically insoluble in water | CO[C@H]1C[C@@H]2CC[C@@H](C)[C@@](O)(O2)C(=O)C(=O)N2CCCC[C@H]2C(=O)O[C@H]([C@H](C)C[C@@H]2CC[C@@H](OP(C)(C)=O)[C@H](OC)C2)CC(=O)[C@H](C)/C=C(\C)[C@@H](O)[C@@H](OC)C(=O)[C@H](C)C[C@H](C)/C=C/C=C/C=C/1C [ridaforolimus]
34 | practically insoluble in water | voclosporin

conditions: humans

Row | Compound | fraction absorbed (fa) of approved oral drugs
35 | CC1(C)CCC(CN2CCN(c3ccc(C(=O)NS(=O)(=O)c4ccc(NCC5CCOCC5)c([N+](=O)[O-])c4)c(Oc4cnc5[nH]ccc5c4)c3)CC2)=C(c2ccc(Cl)cc2)C1 [Venetoclax] | > 65%
36 | CO[C@H]1C[C@H](O[C@H]2CC[C@]3(C=O)[C@H]4CC[C@]5(C)[C@@H](C6=CC(=O)OC6)CC[C@]5(O)[C@@H]4CC[C@]3(O)C2)O[C@H](C)[C@H]1O[C@@H]1O[C@H](CO[C@@H]2O[C@H](CO)[C@@H](O)[C@H](O)[C@H]2O)[C@@H](O)[C@H](O)[C@H]1O [k-strophanthoside] | 16%

same assay, conditions: oral, humans; compounds without fa values in man, estimate or proposal only

Row | estimated / proposed fa | Compound
37 | zero | CC1(C)S[C@@H]2[C@H](NC(=O)[C@H](NC(=O)N3CCN(S(C)(=O)=O)C3=O)c3ccccc3)C(=O)N2[C@H]1C(=O)O [mezlocillin]
38 | > 15% | C=CC[C@@H]1/C=C(\C)C[C@H](C)C[C@H](OC)[C@H]2O[C@@](O)(C(=O)C(=O)N3CCCC[C@H]3C(=O)O[C@H](/C(C)=C/[C@@H]3CC[C@@H](O)[C@H](OC)C3)[C@H](C)[C@@H](O)CC1=O)[C@H](C)C[C@@H]2OC [tacrolimus]
39 | 25-30% | COC[C@H]1C[C@@H](c2ncc(-c3ccc4c(c3)COc3cc5c(ccc6nc([C@@H]7CC[C@H](C)N7C(=O)[C@@H](NC(=O)OC)C(C)C)[nH]c65)cc3-4)[nH]2)N(C(=O)[C@H](NC(=O)OC)c2ccccc2)C1 [velpatasvir]

conditions: as reported in Table 1 and text; source and method not stated

Row | Compound | log P
40 | CCc1c(Cl)c(O)c(Cl)c(O)c1C(=O)O[C@H]1[C@H](O)[C@H](OC)[C@H](OC/C2=C\C=C\C[C@H](O)/C(C)=C/[C@H](CC)[C@@H](O[C@@H]3OC(C)(C)[C@@H](OC(=O)C(C)C)[C@H](O)[C@@H]3O)/C(C)=C/C(C)=C/C[C@@H]([C@@H](C)O)OC2=O)O[C@@H]1C [Fidaxomicin] | 6.4
41 | CC(C)c1nc(CN(C)C(=O)N[C@H](C(=O)N[C@@H](Cc2ccccc2)C[C@H](O)[C@H](Cc2ccccc2)NC(=O)OCc2cncs2)C(C)C)cs1 [Ritonavir] | 5.2
42 | CN1Cc2c(Cl)cc(Cl)cc2[C@H](c2cccc(S(=O)(=O)NCCOCCOCCNC(=O)NCCCCNC(=O)NCCOCCOCCNS(=O)(=O)c3cccc([C@@H]4CN(C)Cc5c(Cl)cc(Cl)cc54)c3)c2)C1 [Tenapanor] | 4.8
43 | Neomycin | -6.6
44 | Teicoplanin A2 1 | -2.3

Results, then the compound that gave them:

Row | log P | Compound
45 | 5.4 | CC[C@H]1OC(=O)[C@H](C)C(=O)[C@H](C)[C@@H](O[C@@H]2O[C@H](C)C[C@H](N(C)C)[C@H]2O)[C@](C)(OC/C=C/c2cnc3ccccc3c2)C[C@@H](C)C(=O)[C@H](C)[C@H]2NC(=O)O[C@@]21C [Cethromycin]
46 | 5.1 | COC(=O)N[C@H](C(=O)N1CCC[C@H]1c1nc(-c2ccc(-c3ccc(-c4c[nH]c([C@@H]5CCCN5C(=O)[C@@H](NC(=O)OC)C(C)C)n4)cc3)cc2)c[nH]1)C(C)C [Daclatasvir]
47 | 5.8 | CC(C)[C@@H](C)[C@@]1(C)CC[C@]2(C)[C@H]3CC[C@@H]4[C@@]5(COC[C@@]4(C)[C@@H](OC[C@](C)(N)C(C)(C)C)[C@H](n4ncnc4-c4ccncc4)C5)C3=CC[C@@]2(C)[C@@H]1C(=O)O [Ibrexafungerp]
48 | 5.7 | COC(=O)N[C@H](C(=O)N1CCC[C@H]1C(=O)Nc1ccc([C@@H]2CC[C@@H](c3ccc(NC(=O)[C@@H]4CCCN4C(=O)[C@@H](NC(=O)OC)C(C)C)cc3)N2c2ccc(C(C)(C)C)cc2)cc1)C(C)C [Ombitasvir]
49 | 8.2 | CC1(C)CCC(CN2CCN(c3ccc(C(=O)NS(=O)(=O)c4ccc(NCC5CCOCC5)c([N+](=O)[O-])c4)c(Oc4cnc5[nH]ccc5c4)c3)CC2)=C(c2ccc(Cl)cc2)C1 [Venetoclax]
50 | 9.3 | COc1cc(F)c(C(C)C)cc1-c1ccc(C(F)(F)F)cc1CN1C(=O)O[C@H](c2cc(C(F)(F)F)cc(C(F)(F)F)c2)[C@@H]1C [anacetrapib]
